Residues, ends and D or L forms follow the SMILES beside them. *: point of attachment. Boc = CC(C)(C)OC(=O)*; Bn = c1ccc(C*)cc1
SMILES	melting point [°C]
CN1CC(c2cc[nH]n2)CC2c3cccc4[nH]cc(c34)CC21 (stereo not drawn)	160 to 162
N#Cc1ccc2c(c1)CC[C@@H](c1ccc(F)cc1)[C@H]2Cn1cncn1 (relative stereo)	149
CN(C)C1Cc2cccc3[nH]c(=S)n(c23)C1 (stereo not drawn)	203 to 205
CSc1[nH]c(-c2cnn(-c3c(Cl)cc(C(F)(F)F)cc3Cl)n2)nc1[N+](=O)[O-]	153 to 155
O=C(CCCCCN1CCN(c2cccc(OC(F)(F)F)c2)CC1)N1Cc2ccccc2C1	89
CSc1nccc(C(=NO)C(=O)c2cccc(Br)c2)n1	156 to 158
O=C1OCCCCOC(=O)c2ccc(cc2)-c2ccc1cc2	266
CCOCc1nc2c(N)nc3cc(-c4cccnc4)ccc3c2n1CCCCNC(=O)c1ccc(C(OCCN(C)C)c2ccccc2)cc1 (stereo not drawn)	157 to 161
Cc1ccc2c3c(ccc2n1)OC[C@H](CNC(=O)C1CCc2c([nH]c4ccc(F)cc24)C1)O3 (stereo partly drawn)	92 to 96
CN(C)C1CCC(Nc2nc3cc4c(cc3nc2-c2ccccn2)CCC4)CC1 (stereo not drawn)	158 to 161
CCOC(=O)c1cn(C2CC2)c2c(C#N)c(N3C[C@@H]4CCCN[C@@H]4C3)c(F)cc2c1=O	209 to 210
COc1cc2ncc(N[C@@H]3C[C@H]4CC[C@@H]3C4)nc2cc1OC	184 to 186
Cc1cccc(C2CCN(CCCCCC(=O)N3Cc4ccccc4C3)CC2)c1C#N	132
CC1(C)C2CCC1(CCBr)CC2	68 to 71
CCC(O)(c1ccc(OCCCN2CCCCC2)cc1)c1cccc(C(F)(F)F)c1 (stereo not drawn)	124 to 125
N#Cc1cccc2c1C(=O)C(OCc1ccccc1)=C(OCc1ccccc1)C2=O	118 to 121
CC(C)n1nc(-c2sc(C(=O)N3CCN(C)CC3)nc2-c2ccccc2)ccc1=O	155 to 156
CN(Cc1cc(C(F)(F)F)cc(C(F)(F)F)c1)C(=O)c1nc(N2CCOCC2)ncc1-c1ccccc1	154 to 155
CCc1ccccc1-c1nc2c3ccccc3ccn2c1N=Cc1ccc(C)cc1	158 to 160
c1csc(Nc2ccnc3cn[nH]c23)c1	255 to 259
BrCC=C1c2ccccc2C=Cc2ccccc21	87.5 to 89.5
O=C(O)c1ccccc1-c1ccc(C(=O)N2Cc3ccc(C(=O)NCc4cccnc4)n3Cc3ccccc32)cc1	189 to 191
COc1cc(C2OCCO2)cc(C#N)c1OC	76.5 to 77.5
Cc1cc2c(=O)n3cc(C#N)ccc3nc2s1	256 to 258

SMILES	melting point [°C]
NCC1C[N+]([O-])=C(c2ccccc2F)c2cc(Cl)ccc2N1 (stereo not drawn)	144 to 148
CC(C)(C)OC(=O)Nc1cc(N2CCC3(CC2)OCCO3)c(-c2ccccc2F)cc1[N+](=O)[O-]	164
O=[N+]([O-])c1cc(-c2ccoc2)ccc1Nc1cccc(-n2cccc2)c1	129 to 131
O=C(NC(CCc1ccccc1)C(=O)Nc1n[nH]c(=S)s1)OCC1c2ccccc2-c2ccccc21 (stereo not drawn)	186 to 187
c1ccc(COc2ccc([C@H]3CO3)cc2)cc1	56 to 61
Cn1cnc(COc2nn3c(-c4cccc(F)c4)nnc3cc2-c2ccccc2)n1	250 to 251
CC(=O)N1CCC(F)(Cc2c3c(nn2C)c(N)nc2ccccc23)CC1	241 to 243
C(/CN1CCOCC1)=C1/CCCc2c1cnn2-c1ccccc1	114 to 116
CCC(O)C#Cc1ccc2c(=O)c(-c3ncc[nH]3)c(N)n(CC3CC3)c2n1 (stereo not drawn)	252
CC1CCc2c(C#N)ccc3c(=O)c(C(=O)O)cn1c23 (stereo not drawn)	300
CC(C)(C)C(=O)c1c[nH]c2ncc(-c3cccc(NC4=NCCN4)c3)nc12	228 to 230
CCn1ncc2c(Cl)cc(-c3ccccc3)nc21	43 to 45
CC(=O)Nc1cc(C)c2c(n1)N(C1CC1)c1ncccc1C(=O)N2C(C)=O	211 to 213
O=C(O)c1cc([N+](=O)[O-])c(F)c(F)c1F	128 to 129
CC(C)C1NS(=O)(=O)N(CCl)C1=O (stereo not drawn)	71 to 72
CC(N)Cn1ncc2ccc3c(c21)C(N)C(O)CO3 (stereo not drawn)	84 to 88
CCCCCCCNC(=O)Nc1ccccc1C(=O)NC1CCN(Cc2ccccc2)CC1	134
Oc1ccc(-c2nc(-c3ccc(O)cc3O)nc(-c3cccn3Cc3ccccc3)n2)c(O)c1	> 275
N#Cc1ccc(NC2CCN(Cc3cccc(C(F)(F)F)c3)CC2)nc1	112
CN(C(=O)c1ccc(-c2ccccc2)cc1)C1N(C)C(c2ccc(F)cc2)=NC1(C(F)(F)F)C(F)(F)F (stereo not drawn)	186 to 187
O=C(Nc1nnn[nH]1)c1c(C(F)(F)F)nc2c(C(F)(F)F)cccc2c1O	> 260
CSCC[C@H](NC(=O)OCc1ccccc1)C(=O)[C@@H](C(N)c1ccccc1)[C@H](O)C(=O)N1C[C@@H](Cl)C[C@H]1C(=O)NC(C)(C)C (stereo partly drawn)	81 to 88
CN1C(=O)C2=C(c3ccc(Br)cc3)N(c3ccccc3)C(=O)C2=C1c1ccccc1	255 to 256

Second part, the molecule after the results:

melting point [°C]	SMILES
223 to 225	CS(=O)(=O)c1ccc(Cn2ccc(OCc3ccc(F)cc3F)c(Cl)c2=O)cc1
68 to 70	COc1ccccc1CN[C@H]1CCCN(Cc2ccccc2)[C@H]1c1ccccc1 (relative stereo)
103 to 105	CON=CCOc1ccccc1S(N)(=O)=O
90 to 93	CC(C)(C)C(O)(COc1ccc(F)cc1)C(C)(F)n1cncn1 (stereo not drawn)
116	CC1(C)CCC(C)(C)c2cc(C(=O)c3ccccc3C(=O)N(CCO)CCO)ccc21
141 to 142	CC(c1ccccc1OCCCC(=O)O)N(c1cc(F)ccc1F)S(=O)(=O)c1ccc(Cl)cc1 (stereo not drawn)
172 to 174	Cc1ccc(S(=O)(=O)C2(CC#Cc3ccc(Cl)cc3)SC(=O)NC2=O)cc1 (stereo not drawn)
104 to 106	CCOC(=O)NCc1ccc2[nH]cc(CC#N)c2c1
148	CCN(CC)C(=O)Nc1ccc(S(=O)(=O)N2C(=O)C(C)(c3cc(C(=O)NCc4cccnc4)ccc3Cl)c3cc(Cl)ccc32)c(OC)c1 (stereo not drawn)
264 to 265	Clc1ccc(-c2[nH]nc(N3CCNCC3)c2-c2ccncc2)cc1
219	Nc1cc(C(=O)NC2CC2)n(-c2nc(Cl)nc3ccoc23)n1
222 to 223	CCn1c(C(O)(c2ccccc2)c2ccccc2)nc(-c2ccncc2)c1-c1ccc(Cl)cc1
148 to 150	COc1ccc(/C=C/S(=O)(=O)CS(=O)(=O)/C=C/c2ccc(OC)c(O)c2)cc1N
184 to 187	CCCc1c(OCc2ccc(Cc3nnn[nH]3)cc2)ccc(C(C)=O)c1O
65 to 67	CCCCc1nn(-c2cc(C(=O)OC)ccc2Cl)c(=O)n1Cc1ccc(-c2ccccc2S(=O)(=O)NC(C)(C)C)cc1
50	O=C(Cl)c1c(Cl)ccc2c1OCCO2
188 to 190	CCC(=O)Nc1c(C(=O)c2cc(Cl)ccn2)[nH]c2cc(Cl)ccc12
146 to 147	CNC(=C[N+](=O)[O-])NCCSCc1ncccc1OC
122	Cc1cc(Cl)nnc1-c1ccccc1
220 to 221	CC(=O)Nc1ccc2c(c1)c(-c1cc3cccnc3[nH]1)cn2C
178 to 180	COc1cc(OC)c2c(=O)[nH]c(-c3ccc(OCCNC(C)C)c(-c4ccccc4S(C)(=O)=O)n3)nc2c1
94 to 95	COc1ccc(CCCCNC(=O)CCl)cc1OC
98 to 100	O=C(O)[C@@H]1C[C@@H](C(=O)O)N(C(=O)OCc2ccccc2)C1

melting point [°C]	SMILES
158	O=C(c1cccc(Br)c1)C(Br)C(Br)c1ccc(Br)cc1 (stereo not drawn)
104 to 107	CC(NC(=O)C(Cc1ccc(OCc2ccccc2)cc1)NC(=O)OC(C)(C)C)C(=O)NCC(=O)O (stereo not drawn) (Boc-Tyr(Bn)-Ala-Gly-OH; configuration not given here)
181 to 184	CCS(=O)(=O)CCC(=O)NNC(=O)N1Cc2ccccc2Oc2ccc(Cl)cc21
156 to 158	O=C(O)COC1=C(Cc2ccc3c(Cl)cccc3c2)C(=O)CC1
165 to 167	CC(=O)N[C@H]1C(n2cc(Cl)cnc2=O)O[C@H](COC(C)=O)[C@@H](OC(C)=O)[C@@H]1OC(C)=O (stereo partly drawn)
160 to 162	CCOC(=O)C1=C(C)NC(CS(=O)c2ccccc2)=C(C(=O)OCC)C1c1cccc([N+](=O)[O-])c1 (stereo not drawn)
164 to 165	CC1CN(C)CC(NC(=O)c2n[nH]c3ccccc23)CN1Cc1ccccc1 (stereo not drawn)
138	CCCNC(=O)c1ccc2c(c1)N(C(C)COS(C)(=O)=O)c1ccccc1S2 (racemic)
80 to 80.5	COC(=O)CN(C)S(=O)(=O)c1ccc(Cl)cc1
70 to 80	O=C(O)[C@H](Cc1ccccc1)NC(=O)[C@@H]1CCCN1S(=O)(=O)c1ccc([N+](=O)[O-])cc1
130 to 132	CNC(=O)N1CC(Oc2ccccc2Cl)C1
183 to 184	CC(C)(C)c1cc(-c2ccc(NC(=O)COCC(=O)O)cc2)cc(C(C)(C)C)c1O
237 to 238	CCC(=O)c1c(-c2ccncc2)[nH]c(-c2ccncc2)c1C
104 to 105	CCC(CNC(=O)Cc1c(Cl)cncc1Cl)c1cccc(OC)c1 (stereo not drawn)
152 to 154	Cc1c(Cl)c(C(=O)O)cc([N+](=O)[O-])c1Cl
110 to 111	COc1ccc(OC)c2c(C#C[Si](C)(C)C)c3ccccc3nc12
165 to 168	COc1ccc(CC2CCC3=C(C2)CC(CO)C(=O)N3)cc1 (stereo not drawn)
165 to 166	COc1ccc(C(=O)N[C@H]2CCN(C)C[C@H]2c2ccccc2)cc1 (relative stereo)
52 to 55	CN(C)CCCOc1cc(F)c(-c2c(Cl)nc3nccn3c2NCC(F)(F)F)c(F)c1
149 to 150	C=Cc1cc(OS(=O)(=O)c2ccc(C)cc2)c(OC)cc1C#N
168 to 169	Cc1ccc(S(=O)(=O)n2c(CCCC(=O)O)cc3nc(Cl)ccc32)c(Cl)c1
124 to 126	Cc1cc(S(=O)(=O)NCc2ccccc2)c2c(C)ccc(C(C)C)cc1-2
78 to 80	COc1cc(C)ccc1Oc1ccc([N+](=O)[O-])cc1

Reference: a melting point compilation (Tetko et al.; mined from patent text by program, amines drawn as free bases though some values may be those of a salt)
